Data on 3 compounds can be found in ChEMBL document CHEMBL3763058, “Design, RNA cleavage and antiviral activity of new artificial ribonucleases derived from mono-, di- and tripeptides connected by linkers of different hydrophobicity” (Bioorg Med Chem, 2016).

The IC50 is the midpoint of a concentration-inhibition curve.

Structures are written as SMILES. Active and inactive are the calls of the source. The calls are words filed in the database; no cut-off is given here.

The first assay concerns Influenza A virus. The assay is described as follows: Antiviral activity against Influenza A virus (A/WSN/33(H1N1)) infected in MDCK cells assessed as viral titer at 0.5 mM compound preincubated with virus for 24 hrs followed by host cell infection measured after 18 hrs by AEC staining based inverted microscopic analysis (reference value: 5.2 log10 FFU/ml). In kind it is functional, A/WSN/1933(H1N1).
Conditions: not given
With `N[C@@H](CCC(=O)O)C(=O)NCCCCCCCCCCCCNC(=O)[C@@H](N)CCC(=O)O`, the Activity was 2.1 log10FFU/ml.

For the next assay, the system named is Influenza A virus. The assay is described as follows: Antiviral activity against Influenza A virus (A/WSN/33(H1N1)) infected in MDCK cells assessed as reduction in viral titer at 4 mM compound preincubated with virus for 24 hrs followed by host cell infection measured after 18 hrs by AEC staining based inverted microscopic analysis.
Conditions: not given
The assay is classed as functional, A/WSN/1933(H1N1).
As to `NCCCC[C@H](NCCCCCNC(=O)[C@@H](N)CCC(=O)O)C(=O)NCCCCCCCCCCCCNC(=O)[C@H](CCCCN)NC(=O)CCCCCNC(=O)[C@@H](N)CCC(=O)O`, the “fold change (FC)” value is on record as 1.5.

The next assay deals with Influenza A virus. As to the kind of experiment: Antiviral activity against Influenza A virus (A/WSN/33(H1N1)) infected in MDCK cells assessed as viral titer at 0.2 mM compound preincubated with virus for 24 hrs followed by host cell infection measured after 18 hrs by AEC staining based inverted microscopic analysis (reference value: 5.2 log10 FFU/ml).
Conditions: not given
In kind it is functional, A/WSN/1933(H1N1).
For the compound `N[C@@H](CCC(=O)O)C(=O)NCCCCCCCCCCCCNC(=O)[C@@H](N)CCC(=O)O`, the Activity is 4.8 log10FFU/ml.
Same read-out and setting: as for `N[C@@H](CCC(=O)OCc1ccccc1)C(=O)NCCCCCCCCCCCCNC(=O)[C@@H](N)CCC(=O)OCc1ccccc1`, the figure is 4.4 log10FFU/ml.

The subject of another assay is Human immunodeficiency virus 1. The assay is described as follows: Binding affinity to HIV1 5'-[32P]HIV96 RNA assessed as viral RNA cleavage at 1 mM measured after 3 and 7 hrs relative to control.
Conditions: not given
For `NCCCC[C@H](NCCCCCNC(=O)[C@@H](N)CCC(=O)O)C(=O)NCCCCCCCCCCCCNC(=O)[C@H](CCCCN)NC(=O)CCCCCNC(=O)[C@@H](N)CCC(=O)O`, the Activity worked out at 55%.
Still for that read-out and setting: as for `N[C@@H](CCC(=O)O)C(=O)NCCCCCCCCCCCCNC(=O)[C@@H](N)CCC(=O)O`, the figure is 60%; as for `N[C@@H](CCC(=O)OCc1ccccc1)C(=O)NCCCCCCCCCCCCNC(=O)[C@@H](N)CCC(=O)OCc1ccccc1`, 18%.

The test system of a further assay is Influenza A virus. The assay is described as follows: Antiviral activity against Influenza A virus (A/WSN/33(H1N1)) infected in MDCK cells assessed as reduction in viral titer compound preincubated with virus for 24 hrs followed by host cell infection measured after 24 hrs by AEC staining based inverted microscopic analysis. In kind it is functional, organism-based. The following applies: A/WSN/1933(H1N1).
Regarding `NCCCC[C@H](NCCCCCNC(=O)[C@@H](N)CCC(=O)O)C(=O)NCCCCCCCCCCCCNC(=O)[C@H](CCCCN)NC(=O)CCCCCNC(=O)[C@@H](N)CCC(=O)O`, the Activity entry is “Dose-dependent effect”.
On the same count and under the same terms, the same measure for `N[C@@H](CCC(=O)O)C(=O)NCCCCCCCCCCCCNC(=O)[C@@H](N)CCC(=O)O`: “Dose-dependent effect”; for `N[C@@H](CCC(=O)OCc1ccccc1)C(=O)NCCCCCCCCCCCCNC(=O)[C@@H](N)CCC(=O)OCc1ccccc1`: “Dose-dependent effect”.

The next assay deals with Influenza A virus. The assay is described as follows: Antiviral activity against Influenza A virus (A/WSN/33(H1N1)) infected in MDCK cells assessed as viral titer at 4 mM compound preincubated with virus for 24 hrs followed by host cell infection measured after 18 hrs by AEC staining based inverted microscopic analysis (reference value: 5.2 log10 FFU/ml).
Conditions: not given
The assay is classed as functional, A/WSN/1933(H1N1).
Regarding `N[C@@H](CCC(=O)OCc1ccccc1)C(=O)NCCCCCCCCCCCCNC(=O)[C@@H](N)CCC(=O)OCc1ccccc1`, the Activity was <1 log10FFU/ml.

For another assay, the system named is Influenza A virus. As to the kind of experiment: Antiviral activity against Influenza A virus (A/WSN/33(H1N1)) infected in MDCK cells assessed as viral titer at 2 mM compound preincubated with virus for 24 hrs followed by host cell infection measured after 18 hrs by AEC staining based inverted microscopic analysis (reference value: 5.2 log10 FFU/ml). In kind it is functional, A/WSN/1933(H1N1).
Conditions: not given
On to `N[C@@H](CCC(=O)OCc1ccccc1)C(=O)NCCCCCCCCCCCCNC(=O)[C@@H](N)CCC(=O)OCc1ccccc1`, for which the Activity came out at 2.3 log10FFU/ml.

The subject of a further assay is Human immunodeficiency virus 1. The assay is described as follows: Binding affinity to HIV1 5'-[32P]HIV96 RNA assessed as time of half viral RNA cleavage of at 1 mM.
Conditions: not given
For the compound `NCCCC[C@H](NCCCCCNC(=O)[C@@H](N)CCC(=O)O)C(=O)NCCCCCCCCCCCCNC(=O)[C@H](CCCCN)NC(=O)CCCCCNC(=O)[C@@H](N)CCC(=O)O`, the TIME came out at 3 h.
On the same count and under the same terms, the same measure for `N[C@@H](CCC(=O)O)C(=O)NCCCCCCCCCCCCNC(=O)[C@@H](N)CCC(=O)O`: 2 h.
The same measure, in the same setting: the same measure for `N[C@@H](CCC(=O)OCc1ccccc1)C(=O)NCCCCCCCCCCCCNC(=O)[C@@H](N)CCC(=O)OCc1ccccc1`: 9 h.

The subject of the next assay is Influenza A virus. The assay is described as follows: Antiviral activity against Influenza A virus (A/WSN/33(H1N1)) infected in MDCK cells assessed as reduction in viral titer at 0.001 to 4 mM compound preincubated with virus for 24 hrs followed by host cell infection measured after 18 hrs by AEC staining based inverted microscopic analysis relative to control. In kind it is functional, A/WSN/1933(H1N1).
Conditions: not given
Consider `NCCCC[C@H](NCCCCCNC(=O)[C@@H](N)CCC(=O)O)C(=O)NCCCCCCCCCCCCNC(=O)[C@H](CCCCN)NC(=O)CCCCCNC(=O)[C@@H](N)CCC(=O)O`, for which the “fold change (FC)” value is recorded as 1.5.
Still for that read-out and setting: the same measure for `N[C@@H](CCC(=O)O)C(=O)NCCCCCCCCCCCCNC(=O)[C@@H](N)CCC(=O)O`: 1.5.

For another assay, the system named is Influenza A virus. As to the kind of experiment: Antiviral activity against Influenza A virus (A/WSN/33(H1N1)) infected in MDCK cells assessed as viral titer at 0.1 mM compound preincubated with virus for 24 hrs followed by host cell infection measured after 18 hrs by AEC staining based inverted microscopic analysis (reference value: 5.2 log10 FFU/ml).
Conditions: not given
The assay is classed as functional, A/WSN/1933(H1N1).
On to `NCCCC[C@H](NCCCCCNC(=O)[C@@H](N)CCC(=O)O)C(=O)NCCCCCCCCCCCCNC(=O)[C@H](CCCCN)NC(=O)CCCCCNC(=O)[C@@H](N)CCC(=O)O`, for which the Activity amounted to 3.8 log10FFU/ml.

The next assay deals with Human immunodeficiency virus 1. As to the kind of experiment: Binding affinity to HIV1 5'-[32P]ON21 RNA assessed as viral RNA cleavage at 1 mM measured after 3 and 7 hrs relative to control.
Conditions: not given
Turning to `NCCCC[C@H](NCCCCCNC(=O)[C@@H](N)CCC(=O)O)C(=O)NCCCCCCCCCCCCNC(=O)[C@H](CCCCN)NC(=O)CCCCCNC(=O)[C@@H](N)CCC(=O)O`, the Activity was determined as 35%.
Take `N[C@@H](CCC(=O)O)C(=O)NCCCCCCCCCCCCNC(=O)[C@@H](N)CCC(=O)O`: the Activity was found to be 39%.
Still for that read-out and setting: as for `N[C@@H](CCC(=O)OCc1ccccc1)C(=O)NCCCCCCCCCCCCNC(=O)[C@@H](N)CCC(=O)OCc1ccccc1`, the figure is 45%.

For the next assay, the system named is Human immunodeficiency virus 1. As to the kind of experiment: Binding affinity to HIV1 5'-[32P]HIV96 RNA assessed as viral RNA cleavage rate constant at 1 mM.
Conditions: not given
`NCCCC[C@H](NCCCCCNC(=O)[C@@H](N)CCC(=O)O)C(=O)NCCCCCCCCCCCCNC(=O)[C@H](CCCCN)NC(=O)CCCCCNC(=O)[C@@H](N)CCC(=O)O`: the K stood at 0.254 h⁻¹.
Still for that read-out and setting: as for `N[C@@H](CCC(=O)O)C(=O)NCCCCCCCCCCCCNC(=O)[C@@H](N)CCC(=O)O`, the figure is 0.276 h⁻¹; as for `N[C@@H](CCC(=O)OCc1ccccc1)C(=O)NCCCCCCCCCCCCNC(=O)[C@@H](N)CCC(=O)OCc1ccccc1`, 0.053 h⁻¹.

A further assay has as its system MDCK. The assay is described as follows: Cytotoxicity against MDCK cells assessed as reduction in cell viability after 24 hrs by MTT assay. The following applies: Canis lupus familiaris. In kind it is cell-based. (Tetrazolium dyes change colour on reduction, which living cells bring about.)
As for `NCCCC[C@H](NCCCCCNC(=O)[C@@H](N)CCC(=O)O)C(=O)NCCCCCCCCCCCCNC(=O)[C@H](CCCCN)NC(=O)CCCCCNC(=O)[C@@H](N)CCC(=O)O`, the IC50 is 0.5 mM.
With `N[C@@H](CCC(=O)O)C(=O)NCCCCCCCCCCCCNC(=O)[C@@H](N)CCC(=O)O`, the IC50 is > 5 mM.
Still for that read-out and setting: as for `N[C@@H](CCC(=O)OCc1ccccc1)C(=O)NCCCCCCCCCCCCNC(=O)[C@@H](N)CCC(=O)OCc1ccccc1`, the figure is > 5 mM.

The next assay relates to Influenza A virus. As to the kind of experiment: Antiviral activity against Influenza A virus (A/WSN/33(H1N1)) infected in MDCK cells assessed as viral titer at 1 mM compound preincubated with virus for 24 hrs followed by host cell infection measured after 18 hrs by AEC staining based inverted microscopic analysis (reference value: 5.2 log10 FFU/ml).
Conditions: not given
In kind it is functional, A/WSN/1933(H1N1).
Turning to `NCCCC[C@H](NCCCCCNC(=O)[C@@H](N)CCC(=O)O)C(=O)NCCCCCCCCCCCCNC(=O)[C@H](CCCCN)NC(=O)CCCCCNC(=O)[C@@H](N)CCC(=O)O`, the Activity was found to be 3.7 log10FFU/ml.
With `N[C@@H](CCC(=O)O)C(=O)NCCCCCCCCCCCCNC(=O)[C@@H](N)CCC(=O)O`, the Activity was <1 log10FFU/ml.

The next assay has as its system Human immunodeficiency virus 1. The assay is described as follows: Binding affinity to HIV1 5'-[32P]ON21 RNA in cacodylate buffer assessed as RNA cleavage rate constant for 3 hrs at pH 6.2 to 7.2.
Conditions: not given
With `NCCCC[C@H](NCCCCCNC(=O)[C@@H](N)CCC(=O)O)C(=O)NCCCCCCCCCCCCNC(=O)[C@H](CCCCN)NC(=O)CCCCCNC(=O)[C@@H](N)CCC(=O)O`, the outcome was Active.
Regarding `N[C@@H](CCC(=O)O)C(=O)NCCCCCCCCCCCCNC(=O)[C@@H](N)CCC(=O)O`, the result was Active.
